Data published in ChEMBL document CHEMBL5042526, “Design, Synthesis, and Biological Evaluation of Triazolone Derivatives as Potent PPARα/δ Dual Agonists for the Treatment of Nonalcoholic Steatohepatitis” (J Med Chem, 2022).
Activity calls are given as the source filed them.

Assays:
Mus musculus [1] = experiment: In vivo agonist activity at PPARalpha/delta assessed as upregulation of Csnk1g2 mRNA expression in C57BL/6Nifdc mouse liver at 10 mg/kg, po for 4 days; type: functional, organism-based; settings: time 4.0 day
C2C12 [2] = experiment: Agonist activity against PPARalpha/delta (unknown origin) assessed as upregulation of Angpt14 mRNA expression in […] cells at 8 nM incubated for 12 hrs by RT-PCR analysis; type: cell-based; settings: filed as agonist
Mus musculus [3] = experiment: In vivo agonist activity against PPARalpha/delta assessed as upregulation of Ucp3 mRNA expression in C57BL/6Nifdc mouse liver at 10 mg/kg, po for 4 days; type: functional, organism-based; settings: time 4.0 day
Mus musculus [4] = experiment: In vivo agonist activity against PPARalpha/delta assessed as upregulation of Hilpda-mRNA expression in C57BL/6Nifdc mouse liver at 10 mg/kg, po for 4 days; type: functional, organism-based; settings: time 4.0 day
Mus musculus [5] = experiment: Anti-fibrosis effect in CCl4 induced liver fibrosis C57BL/6JNifdc mouse model by measuring serum triglyceride level at 3 to 30 mg/kg, po; type: functional, organism-based; settings: dose 3-30 mg/kg
Mus musculus [6] = experiment: In vivo agonist activity against PPARalpha/delta assessed as upregulation of Acot1 mRNA expression in C57BL/6Nifdc mouse skeletal muscle at 10 mg/kg, po for 4 days; type: functional, organism-based; settings: time 4.0 day
HepG2 = experiment: Agonist activity against PPARalpha/delta (unknown origin) assessed as upregulation of ACADVL mRNA expression in human HepG2 cells incubated for 12 hrs by RT-PCR analysis; type: cell-based; settings: filed as agonist, dose 8-200 nM
Mus musculus [7] = experiment: In vivo agonist activity at PPARalpha/delta assessed as upregulation of Hmgcs2 mRNA expression in C57BL/6Nifdc mouse liver at 10 mg/kg, po for 4 days; type: functional, organism-based; settings: time 4.0 day
THP-1 = experiment: Anti-inflammatory activity in human THP1-derived macrophages assessed as decrease in secretion of LPS-induced IL-6 level at 8 to 200 nM for 12 hrs by ELISA kit method; type: functional, cell-based; settings: dose 8-200 nM
Mus musculus [8] = experiment: In vivo agonist activity against PPARalpha/delta assessed as upregulation of Abca1 mRNA expression in C57BL/6Nifdc mouse skeletal muscle at 10 mg/kg, po for 4 days; type: functional, organism-based; settings: time 4.0 day
AML12 = experiment: Agonist activity against PPARalpha/delta (unknown origin) assessed as upregulation of Cpt1A mRNA expression in […] cells incubated for 12 hrs by RT-PCR analysis; type: cell-based; settings: filed as agonist, dose 8-200 nM
Mus musculus [9] = experiment: In vivo agonist activity at PPARalpha/delta assessed as upregulation of -Grhpr mRNA expression in C57BL/6Nifdc mouse liver at 10 mg/kg, po for 4 days; type: functional, organism-based; settings: time 4.0 day
Mus musculus [10] = experiment: In vivo agonist activity at PPARalpha/delta assessed as upregulation of Akr1c18 mRNA expression in C57BL/6Nifdc mouse liver at 10 mg/kg, po for 4 days; type: functional, organism-based; settings: time 4.0 day
Mus musculus [11] = experiment: Anti-fibrosis effect in HF-CDAA-induced nonalcoholic steatohepatitis C57BL/6JNifdc mouse model assessed as expression of Tgfb1 marker at 10 mg/kg, po after 20 hrs by Western blot analysis; type: functional, organism-based
Mus musculus [12] = experiment: Anti-fibrosis effect in CCl4 induced liver fibrosis C57BL/6JNifdc mouse model assessed as downregulation of Col1a1 expression at 3 to 30 mg/kg, po after 20 hrs by Western blot analysis; type: functional, organism-based; settings: dose 3-30 mg/kg
Mus musculus [13] = experiment: Anti-NASH activity in HF-CDAA-induced nonalcoholic steatohepatitis C57BL/6JNifdc mouse model assessed as decrease in level of serum AST 10 mg/kg, po by automatic biochemical analysis; type: functional, organism-based
Mus musculus [14] = experiment: Anti-inflammatory activity in HF-CDAA-induced nonalcoholic steatohepatitis C57BL/6JNifdc mouse model assessed as decrease in Adgre1 mRNA expression at 10 mg/kg, po; type: functional, organism-based
[15] = biological target: T1, Peroxisome proliferator-activated receptor gamma (Mus musculus, UniProt P37238); experiment: Agonist activity at mouse PPARgamma in Cos7 cells transfected with pBIND and pGL4.35 Gal4 UAS Luc reporter plasmid by measuring luciferase activity incubated for 16 hrs by luciferase reporter gene assay
T1 sequence (P37238 whole entry): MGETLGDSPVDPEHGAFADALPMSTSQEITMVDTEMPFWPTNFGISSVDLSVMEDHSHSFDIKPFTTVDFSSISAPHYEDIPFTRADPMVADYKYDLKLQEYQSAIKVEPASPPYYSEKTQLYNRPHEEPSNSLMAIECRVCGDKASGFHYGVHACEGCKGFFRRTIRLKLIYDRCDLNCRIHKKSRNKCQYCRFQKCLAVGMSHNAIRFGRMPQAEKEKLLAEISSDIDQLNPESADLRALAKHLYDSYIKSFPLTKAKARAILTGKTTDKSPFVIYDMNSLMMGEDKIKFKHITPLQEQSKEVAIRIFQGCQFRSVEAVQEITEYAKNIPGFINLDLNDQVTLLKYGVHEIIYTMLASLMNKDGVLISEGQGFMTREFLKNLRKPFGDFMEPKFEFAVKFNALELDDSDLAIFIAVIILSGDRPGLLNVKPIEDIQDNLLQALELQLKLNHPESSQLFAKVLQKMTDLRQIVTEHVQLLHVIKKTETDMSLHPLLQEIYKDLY

C2C12 [16] = experiment: Agonist activity against PPARalpha/delta (unknown origin) assessed as upregulation of Cpt1A mRNA expression in […] cells incubated for 12 hrs by RT-PCR analysis; type: cell-based; settings: filed as agonist, dose 8-200 nM
Mus musculus [17] = experiment: In vivo agonist activity against PPARalpha/delta assessed as upregulation of Abcg2 mRNA expression in C57BL/6Nifdc mouse liver at 10 mg/kg, po for 4 days; type: functional, organism-based; settings: time 4.0 day
Mus musculus [18] = experiment: In vivo agonist activity at PPARalpha/delta assessed as upregulation of Acadm-mRNA expression in C57BL/6Nifdc mouse liver at 10 mg/kg, po for 4 days; type: functional, organism-based; settings: time 4.0 day
Mus musculus [19] = experiment: In vivo agonist activity against PPARalpha/delta assessed as upregulation of Cpt2 mRNA expression in C57BL/6Nifdc mouse skeletal muscle at 10 mg/kg, po for 4 days; type: functional, organism-based; settings: time 4.0 day
[20] = biological target: T2, Peroxisome proliferator-activated receptor delta (Mus musculus, UniProt P35396); experiment: Agonist activity at mouse PPARdelta in Cos7 cells transfected with pBIND and pGL4.35 Gal4 UAS Luc reporter plasmid by measuring luciferase activity incubated for 16 hrs by luciferase reporter gene assay
T2 sequence (P35396 whole entry): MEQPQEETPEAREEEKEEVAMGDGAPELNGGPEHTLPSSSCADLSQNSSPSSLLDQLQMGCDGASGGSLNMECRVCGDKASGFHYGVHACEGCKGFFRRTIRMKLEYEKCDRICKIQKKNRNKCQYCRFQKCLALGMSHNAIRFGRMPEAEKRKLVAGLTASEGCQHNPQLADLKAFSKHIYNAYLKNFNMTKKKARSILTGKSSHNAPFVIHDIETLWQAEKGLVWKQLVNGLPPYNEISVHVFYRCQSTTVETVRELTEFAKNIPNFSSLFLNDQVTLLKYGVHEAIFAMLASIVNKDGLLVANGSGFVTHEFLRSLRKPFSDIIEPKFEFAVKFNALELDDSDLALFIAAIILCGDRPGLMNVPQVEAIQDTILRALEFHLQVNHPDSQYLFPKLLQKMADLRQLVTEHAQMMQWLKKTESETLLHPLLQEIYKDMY

Cc1cc(Cn2ncn(-c3ccc(OC(F)(F)F)cc3)c2=O)cc(C)c1OC(C)(C)C(=O)O
19.7 nM: EC50 [20]
active: Activity (Mus musculus [1]) | Activity (C2C12 [2]) | Activity (Mus musculus [3]) | Activity (Mus musculus [4]) | Activity (Mus musculus [5]) | Activity (Mus musculus [6]) | Activity (HepG2) Dose-Dependent Effect | Activity (Mus musculus [7]) | Activity (THP-1) | Activity (Mus musculus [8]) | Activity (AML12) Dose-Dependent Effect | Activity (Mus musculus [9]) | Activity (Mus musculus [10]) | Activity (Mus musculus [11]) | Activity (Mus musculus [12]) | Activity (Mus musculus [13]) | Activity (Mus musculus [14]) | Activity (C2C12 [16]) Dose-Dependent Effect | Activity (Mus musculus [17]) | Activity (Mus musculus [18]) | Activity (Mus musculus [19])
1010 nM: EC50 [15]
